Patent publication US10070645B2, “N-cycloalkyl-N-{[2-(1-substitutedcycloalkyl)phenyl]methylene}-(thio)carboxamide derivatives” (BAYER CROPSCIENCE AKTIENGESELLSCHAFT, priority 2013, dated 2018)
Values belong to the molecule of their own block, whether it stands above or below them.

Experiment: log P by HPLC on a reversed-phase column (C 18), EEC Directive 79/831 Annex V.A8
Format: physicochemical
Conditions: for chromatographic logP: reversed-phase HPLC column (C 18)
Procedure: In table 1, the log P values were determined in accordance with EEC Directive 79/831 Annex V.A8 by HPLC (High Performance Liquid Chromatography) on a reversed-phase column (C 18), using the method described below:
Temperature: 40° C.; Mobile phases: 0.1% aqueous formic acid and acetonitrile; linear gradient from 10% acetonitrile to 90% acetonitrile.
Calibration was carried out using unbranched alkan-2-ones (comprising 3 to 16 carbon atoms) with known log P values (determination of the log P values by the retention times using linear interpolation between two successive alkanones). lambda-max-values were determined using UV-spectra from 200 nm to 400 nm and the peak values of the chromatographic signals.

[1] = HPLC, reversed-phase column (C 18), 40° C., 0.1% aqueous formic acid and acetonitrile, linear gradient 10% to 90% acetonitrile
[2] = Table 3 (amines of formula II), HPLC C 18, 40° C., 0.1% aqueous formic acid and acetonitrile
[3] = HPLC on reversed-phase column (C 18), 40° C., 0.1% aqueous formic acid and acetonitrile, linear gradient 10% to 90% acetonitrile
[4] = Table 4 (aldehydes of formula IV), HPLC C 18, 40° C., 0.1% aqueous formic acid and acetonitrile

Molecule: CCC1(c2ccccc2CN(C(=O)c2c(C(F)F)nn(C)c2Cl)C2CC2)CC1 [I.097]
logP [1]: 4.34

Molecule: Cn1nc(C(F)F)c(C(=O)N(Cc2cc(-c3cn(C)c4ccccc34)ccc2C2(C)CC2)C2CC2)c1F [I.082]
logP [1]: 5.00

Molecule: Cn1nc(C(F)F)c(C(=O)N(Cc2cccc(-c3ccccc3)c2C2(C)CC2)C2CC2)c1F [I.012]
logP [1]: 4.73

Molecule: CCCC1(c2cc(Cl)ccc2CN(C(=O)c2c(C(F)F)nn(C)c2F)C2CC2)CC1 [I.128]
logP [1]: 5.14

Molecule: Cc1ccc(C2(C)CC2)c(CNC2CC2)c1 [II.12, N-[5-methyl-2-(1-methylcyclopropyl)benzyl]cyclopropanamine]
chromatographic logP [2]: 1.38

Molecule: Cn1nc(C(F)F)c(C(=O)N(Cc2cc(Cl)ccc2C2(C(F)F)CC2)C2CC2)c1F [I.149]
logP [1]: 3.70

Molecule: Cn1nc(C(F)F)c(C(=O)N(Cc2ccc(-c3cccnc3)cc2C2(C)CC2)C2CC2)c1F [I.044]
logP [1]: 2.35

Molecule: CCC1(c2cc(Cl)ccc2CNC2CC2)CC1 [II.25, N-[4-chloro-2-(1-ethylcyclopropyl)benzyl]cyclopropanamine]
chromatographic logP [2]: 1.65

Molecule: COc1ccc(C=O)c(C2(C)CC2)c1 [IV.05, 4-methoxy-2-(1-methylcyclopropyl)benzaldehyde]
chromatographic logP [4]: 2.92

Molecule: CC1(c2ccc(Cl)cc2CNC2CC2)CC1 [II.10, N-[5-chloro-2-(1-methylcyclopropyl)benzyl]cyclopropanamine]
chromatographic logP [2]: 1.7

Molecule: Cc1ccc(C2(C)CC2(Cl)Cl)c(CN(C(=O)c2c(C(F)F)nn(C)c2F)C2CC2)c1 (racemic) [I.172]
logP [3]: 4.24

Molecule: Cc1ccc(C2(C)CC2)c(CN(C(=O)c2c(C(F)F)nn(C)c2Cl)C2CC2)c1 [I.072]
logP [1]: 4.36

Molecule: Cc1ccc(C2(C(F)F)CC2)c(C=O)c1 [IV.21, 2-[1-(difluoromethyl)cyclopropyl]-5-methylbenzaldehyde]
chromatographic logP [4]: 3.01

Molecule: CCC1(c2ccc(C(F)(F)F)cc2CN(C(=O)c2c(C(F)F)nn(C)c2Cl)C2CC2)CC1 [I.109]
logP [1]: 4.85

Molecule: Cn1nc(C(F)F)c(C(=O)N(Cc2c(C3(C)CC3)ccc(Cl)c2Cl)C2CC2)c1F [I.085]
logP [1]: 4.51

Molecule: COC1(c2ccc(-c3ccoc3)cc2CN(C(=O)c2c(C(F)F)nn(C)c2F)C2CC2)CC1 [I.125]
logP [1]: 3.80

Molecule: Cn1nc(C(F)F)c(C(=O)N(Cc2ccccc2C2(C)CC2)C2CC2)c1Cl [I.002]
logP [1]: 4.01

Molecule: COC1(c2ccc(C3=CCCC3)cc2CN(C(=O)c2c(C(F)F)nn(C)c2F)C2CC2)CC1 [I.126]
logP [1]: 4.76

Molecule: CCC1(c2cccc(F)c2CN(C(=O)c2c(C(F)F)nn(C)c2Cl)C2CC2)CC1 [I.115]
logP [1]: 4.34

Molecule: Cn1nc(C(F)F)c(C(=O)N(Cc2cc(Br)ccc2C2(C(F)F)CC2)C2CC2)c1F [I.146]
logP [1]: 3.76

Molecule: Cn1nc(C(F)F)c(C(=O)N(Cc2ccc(-c3ccoc3)cc2C2(C)CC2)C2CC2)c1F [I.039]
logP [1]: 4.23

Molecule: Cn1nc(C(F)F)c(C(=O)N(Cc2cc(-c3csc4ccccc34)ccc2C2(C)CC2)C2CC2)c1F [I.081]
logP [1]: 5.48

Molecule: Cc1ccc(C2(C)CC2)c(CN(C(=O)c2c(C(F)F)nn(C)c2Cl)C2(C)CC2)c1 [I.077]
logP [1]: 4.63

Molecule: FC(F)(F)C1(c2ccccc2CNC2CC2)CC1 [II.45, N-{2-[1-(trifluoromethyl)cyclopropyl]benzyl}cyclopropanamine]
chromatographic logP [2]: 1.25

Molecule: COCC1(c2ccc(C)cc2CN(C(=O)c2c(C(F)F)nn(C)c2F)C2CC2)CC1 [I.182]
logP [3]: 3.52

Molecule: Cn1nc(C(F)F)c(C(=O)N(Cc2ccc(F)cc2C2(C)CC2)C2CC2)c1F [I.021]
logP [1]: 3.92

Molecule: CC1(c2cc(Cl)c(Cl)cc2CNC2CC2)CC1 [II.07, N-[4,5-dichloro-2-(1-methylcyclopropyl)benzyl]cyclopropanamine]
chromatographic logP [2]: 1.79

Molecule: CCC1(c2ccc(C)cc2CN(C(=O)c2c(C(F)F)nn(C)c2Cl)C2CC2)CC1 [I.112]
logP [1]: 4.77

Molecule: C=C(C)c1cccc(CN(C(=O)c2c(C(F)F)nn(C)c2F)C2CC2)c1C1(C)CC1 [I.015]
logP [1]: 4.64

Molecule: CCC1(c2cc(C)ccc2CN(C(=O)c2c(C(F)F)nn(C)c2Cl)C2CC2)CC1 [I.105]
logP [1]: 4.74

Molecule: Cn1nc(C(F)F)c(C(=O)N(Cc2c(C3(C)CC3)ccc(Cl)c2F)C2CC2)c1F [I.084]
logP [1]: 4.24

Molecule: CC1(c2ccc(Cl)cc2Br)CC1 [2-bromo-4-chloro-1-(1-methylcyclopropyl)benzene]
chromatographic logP (preparation examples): 4.93

Molecule: CC1(c2ccc(F)cc2C=O)CC1 [IV.11, 5-fluoro-2-(1-methylcyclopropyl)benzaldehyde]
chromatographic logP [4]: 3.22

Molecule: Cn1nc(C(F)F)c(C(=O)N(Cc2cc(Br)ccc2C2(C)CC2)C2CC2)c1F [I.058]
logP [1]: 4.36

Molecule: CCC1(c2ccc(C(F)(F)F)cc2CN(C(=O)c2c(C(F)F)nn(C)c2F)C2CC2)CC1 [I.108]
logP [1]: 4.67

Molecule: N#CC1(c2ccc(Cl)cc2CNC2CC2)CC1 [II.20, 1-{4-chloro-2-[(cyclopropylamino)methyl]phenyl}cyclopropanecarbonitrile]
chromatographic logP [2]: 0.77

Molecule: Cn1nc(C(F)F)c(C(=O)N(Cc2c(C3(C)CC3(Cl)Cl)ccc(Cl)c2F)C2CC2)c1F (racemic) [I.176]
logP [3]: 4.46

Molecule: 3-fluoro-2-(1-methylcyclopropyl)benzaldehyde [IV.14]
logP [4]: 3.13

Molecule: CCC1(c2cc(C)ccc2CN(C(=O)c2c(C(F)F)nn(C)c2F)C2CC2)CC1 [I.104]
logP [1]: 4.59

Molecule: Cn1nc(C(F)F)c(C(=S)N(Cc2cc(F)c(F)cc2C2(C)CC2)C2CC2)c1Cl [I.050]
logP [1]: 4.90

Molecule: FC(F)C1(c2cccc(Br)c2CNC2CC2)CC1 [II.41, N-{2-bromo-6-[1-(difluoromethyl)cyclopropyl]benzyl}cyclopropanamine]
chromatographic logP [2]: 1.1

Molecule: Cn1nc(C(F)F)c(C(=O)N(Cc2cc(Br)ccc2C2(C(F)F)CC2)C2CC2)c1Cl [I.147]
logP [1]: 3.92

Molecule: Cn1nc(C(F)F)c(C(=O)N(Cc2cc(Cl)ccc2C2(C)CC2)C2CC2)c1Cl [I.061]
logP [1]: 4.44

Continued, values first:

logP [1]: 3.87
Molecule: Cn1nc(C(F)F)c(C(=O)N(Cc2c(Br)cccc2C2(C(F)F)CC2)C2CC2)c1Cl [I.156]

logP [1]: 4.34
Molecule: Cn1nc(C(F)F)c(C(=O)N(Cc2cc(C(F)(F)F)ccc2C2(C)CC2)C2CC2)c1F [I.059]

logP [1]: 4.91
Molecule: Cn1nc(C(F)F)c(C(=O)N(Cc2ccc(Oc3ccccc3)cc2C2(C)CC2)C2CC2)c1F [I.032]

logP [1]: 4.64
Molecule: Cn1nc(C(F)F)c(C(=S)N(Cc2cccc(F)c2C2(C)CC2)C2CC2)c1Cl [I.011]

logP [1]: 3.53
Molecule: Cn1nc(C(F)F)c(C(=O)N(Cc2ccc3c(c2C2(C)CC2)OCO3)C2CC2)c1F [I.016]

logP [2]: 1.08 | chromatographic logP (preparation examples): 1.08
Molecule: Fc1ccc(C2(C(F)F)CC2)c(CNC2CC2)c1 [II.39, N-{2-[1-(difluoromethyl)cyclopropyl]-5-fluorobenzyl}cyclopropanamine]

logP [3]: 3.83
Molecule: Cn1nc(C(F)F)c(C(=O)N(Cc2cc(F)ccc2C2(C(F)(F)F)CC2)C2CC2)c1F [I.165]

logP [1]: 4.80
Molecule: Cc1ccc(C2(C)CC2)c(CN(C(=S)c2c(C(F)F)nn(C)c2F)C2CC2)c1 [I.073]

logP [1]: 3.46
Molecule: COc1cc(CN(C(=O)c2c(C(F)F)nn(C)c2Cl)C2CC2)c(C2(C)CC2)cc1OC [I.054]

chromatographic logP [2]: 1.43
Molecule: CC1(c2ccc(Br)cc2CNC2CC2)CC1 [II.09, N-[5-bromo-2-(1-methylcyclopropyl)benzyl]cyclopropanamine]

chromatographic logP [2]: 1.68
Molecule: Cc1cc(CNC2CC2)c(C2(C)CC2)cc1C [II.06, N-[4,5-dimethyl-2-(1-methylcyclopropyl)benzyl]cyclopropanamine]

logP [1]: 3.76
Molecule: Cn1nc(C(F)F)c(C(=O)N(Cc2c(Br)cccc2C2(C(F)F)CC2)C2CC2)c1F [I.155]

chromatographic logP [2]: 1.14
Molecule: CCC1(c2cccc(F)c2CNC2CC2)CC1 [II.31, N-[2-(1-ethylcyclopropyl)-6-fluorobenzyl]cyclopropanamine]

logP [1]: 3.94
Molecule: Cn1nc(C(F)F)c(C(=O)N(Cc2cc(C3CC3)ccc2C2(C(F)F)CC2)C2CC2)c1F [I.150]

chromatographic logP [2]: 1.49
Molecule: COCC1(c2ccc(C)cc2CNC2CC2)CC1 [II.22, N-{2-[1-(methoxymethyl)cyclopropyl]-5-methylbenzyl}cyclopropanamine]

logP [1]: 4.56
Molecule: CCc1ccc(C2(C)CC2)c(CN(C(=O)c2c(C(F)F)nn(C)c2F)C2CC2)c1 [I.065]

chromatographic logP [2]: 1.95
Molecule: CCC1(c2cc(C(F)(F)F)ccc2CNC2CC2)CC1 [II.24, N-[2-(1-ethylcyclopropyl)-4-(trifluoromethyl)benzyl]cyclopropanamine]

logP [1]: 4.51
Molecule: Cn1nc(C(F)F)c(C(=O)N(Cc2ccc(C3CC3)cc2C2(C)CC2)C2CC2)c1F [I.020]

logP [1]: 5.26
Molecule: Cc1ccccc1-c1ccc(CN(C(=O)c2c(C(F)F)nn(C)c2F)C2CC2)c(C2(C)CC2)c1 [I.035]

logP [1]: 4.86
Molecule: CCC1(c2cc(C(F)(F)F)ccc2CN(C(=O)c2c(C(F)F)nn(C)c2Cl)C2CC2)CC1 [I.101]

logP [1]: 3.13
Molecule: Cn1nc(C(F)F)c(C(=O)N(Cc2cc(Cl)ccc2C2(C#N)CC2)C2CC2)c1F [I.094]

logP [3]: 4.81
Molecule: Cn1nc(C(F)F)c(C(=O)N(Cc2c(C3(C)CC3(Cl)Cl)ccc(Cl)c2Cl)C2CC2)c1Cl (racemic) [I.174]
